The target of the assay is T1, CHK1 kinase (Homo sapiens, UniProt O14757).
T1 construct: glutathione S-transferase (GST); made in house; host or cells: Sf21 insect cells (S. frugiperda), baculovirus
T1 sequence (O14757 1-476): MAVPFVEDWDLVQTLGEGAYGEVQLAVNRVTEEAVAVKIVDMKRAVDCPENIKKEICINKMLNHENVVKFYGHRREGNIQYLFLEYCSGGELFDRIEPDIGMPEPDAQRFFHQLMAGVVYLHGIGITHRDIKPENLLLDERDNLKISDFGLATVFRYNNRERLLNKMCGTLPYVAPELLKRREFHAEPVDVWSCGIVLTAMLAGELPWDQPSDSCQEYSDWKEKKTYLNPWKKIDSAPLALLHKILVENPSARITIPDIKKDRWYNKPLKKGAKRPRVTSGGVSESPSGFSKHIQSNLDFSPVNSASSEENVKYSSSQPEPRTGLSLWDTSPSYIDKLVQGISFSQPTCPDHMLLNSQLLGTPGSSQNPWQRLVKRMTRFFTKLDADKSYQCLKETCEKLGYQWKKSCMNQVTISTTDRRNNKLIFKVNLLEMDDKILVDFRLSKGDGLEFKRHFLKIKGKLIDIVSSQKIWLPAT
The assay is described as follows: Flashplate method (CHK1), measurement of the CHK1 kinase activity. The note with it: class symbols; 'Affinity to receptors'. The assay is classed as biochemical. The essentials:
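GST-tagged CHK1 expressed in Sf21 insect cells, incubated at 30 °C with biotinylated CHKtide (0.15 μg per well) and γ33P-ATP in pH 7.5 buffer (EGTA, Mg acetate, mercaptoethanol, 0.1% BSA). Stopped with EDTA, captured on streptavidin Flashplates and counted by scintillation. IC50 set against uninhibited reaction and 0.1 μM staurosporine as zero.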
Consider `CS(=O)(=O)c1cccc(CNc2c(Nc3ccc4[nH]cnc4c3)c(=O)c2=O)c1` [Compound A131, 3-(1H-benzimidazol-5-ylamino)-4-(3-methyl-sulfonylbenzylamino)cyclobut-3-ene-1,2-dione], for which the IC50 (as a rule, the midpoint of a concentration-inhibition curve) was more than 1 µM.
In the case of `O=c1c(NCc2cccc(O)c2Cl)c(Nc2ccc3[nH]cnc3c2)c1=O` [Compound A86, 3-(1H-benzimidazol-5-ylamino)-4-(2-chloro-3-hydroxybenzylamino)cyclobut-3-ene-1,2-dione] it was more than 1 µM.
Molecule `CCOC(=O)CC(Nc1c(Nc2ccc3[nH]cnc3c2)c(=O)c1=O)c1cccc(O)c1` (centres unmarked) [Compound A100, ethyl 3-[2-(1H-benzimidazol-5-ylamino)-3,4-dioxocyclobut-1-enylamino]-3-(3-hydroxy-phenyl)propionate] gave an IC50 of more than 1 µM.
Regarding `COc1cccc([C@H](C)Nc2c(Nc3ccc4[nH]cnc4c3)c(=O)c2=O)c1` [Compound A83, 3-(1H-benzimidazol-5-ylamino)-4-[(S)-1-(3-methoxyphenyl)ethylamino]cyclobut-3-ene-1,2-dione], the IC50 is more than 1 µM.
Molecule `CC[C@H](Nc1c(Nc2ccc3[nH]cnc3c2)c(=O)c1=O)c1cccc(OC)c1` [Compound A115, 3-(1H-benzimidazol-5-ylamino)-4-[(S)-1-(3-methoxyphenyl)propylamino]cyclobut-3-ene-1,2-dione] came in with an IC50 of more than 1 µM.
The molecule `O=c1c(NCc2cccc(O)c2)c(Nc2ccc3nccn3c2)c1=O` [Compound A49, 3-(imidazo[1,2-a]pyridin-6-ylamino)-4-(3-hydroxybenzylamino)cyclobut-3-ene-1,2-dione] registered an IC50 of less than 1 µM.
Take `CCN(CC)CCn1cnc2cc(Nc3c(N[C@H](C)c4cccc(OC)c4)c(=O)c3=O)ccc21` [Compound A168, 3-[1-(2-diethylaminoethyl)-1H-benzimidazol-5-ylamino]-4-[(R)-1-(3-methoxyphenyl)ethyl-amino]cyclobut-3-ene-1,2-dione]: the IC50 was more than 1 µM.
`CNS(=O)(=O)c1ccc(CNc2c(Nc3ccc4[nH]cnc4c3)c(=O)c2=O)cc1` [Compound A152, 3-(1H-benzimidazol-5-ylamino)-4-[4-(N-methylaminosulfonyl)benzylamino]cyclobut-3-ene-1,2-dione] registered an IC50 of more than 1 µM.
In the case of “3-(3-hydroxybenzylamino)-4-(5-methyl-imidazo[1,2-a]pyridin-6-ylamino)cyclobut-3-ene-1,2-dione [Compound A56]” it was less than 1 µM.
Molecule `Cc1cc2nccn2cc1Nc1c(NCc2cccc(O)c2)c(=O)c1=O` [Compound A54, 3-(3-hydroxybenzylamino)-4-(7-methyl-imidazo[1,2-a]pyridin-6-ylamino)cyclobut-3-ene-1,2-dione] came in with an IC50 of more than 1 µM.
In the case of `O=c1c(Nc2ccc3[nH]cnc3c2)c(N2CCc3ccc(O)cc3C2)c1=O` [Compound A82, 3-(1H-benzimidazol-5-ylamino)-4-(7-hydroxy-3,4-dihydro-1H-isoquinolin-2-yl)cyclobut-3-ene-1,2-dione] it was more than 1 µM; in that of `COCCNC(=O)CC(Nc1c(Nc2ccc3[nH]cnc3c2)c(=O)c1=O)c1cccc(O)c1` (centres unmarked) [Compound A117, 3-[2-(1H-benzimidazol-5-ylamino)-3,4-dioxo-cyclobut-1-enylamino]-3-(3-hydroxyphenyl)-N-(2-methoxyethyl)propionamide], more than 1 µM.
Turning to `O=c1c(NCc2cc(Br)ccc2O)c(Nc2ccc3[nH]cnc3c2)c1=O` [Compound A36, 3-(1H-benzimidazol-5-ylamino)-4-(3-bromo-6-hydroxybenzylamino)cyclobut-3-ene-1,2-dione], the IC50 is more than 1 µM.
For `COC(=O)Nc1cccc(CNc2c(Nc3ccc4[nH]cnc4c3)c(=O)c2=O)c1` [Compound A128, 3-(1H-benzimidazol-5-ylamino)-4-(3-methoxycarbonylaminobenzylamino)-cyclobut-3-ene-1,2-dione], the half-inhibitory concentration (IC50) is more than 1 µM.
As to `CS(=O)(=O)c1ccc(CNc2c(Nc3ccc4[nH]cnc4c3)c(=O)c2=O)cc1` [Compound A150, 3-(1H-benzimidazol-5-ylamino)-4-(4-methyl-sulfonylbenzylamino)cyclobut-3-ene-1,2-dione], the IC50 was more than 1 µM.
As for `CC(C)(C)OC(=O)N1CCC(Oc2ccccc2CNc2c(Nc3ccc4[nH]cnc4c3)c(=O)c2=O)CC1` [Compound A146, 3-(1H-benzimidazol-5-ylamino)-4-[2-(1-tert-butyloxycarbonylpiperidin-4-yloxy)benzyl-amino]cyclobut-3-ene-1,2-dione], the figure is more than 1 µM.
As for `COc1ccccc1CNc1c(Nc2ccc3[nH]cnc3c2)c(=O)c1=O` [Compound A144, 3-(1H-benzimidazol-5-ylamino)-4-(2-methoxybenzylamino)cyclobut-3-ene-1,2-dione], the figure is more than 1 µM; as for `COc1cccc(CNc2c(Nc3ccc4[nH]cnc4c3)c(=O)c2=O)c1` [Compound A116, 3-(1H-benzimidazol-5-ylamino)-4-(3-methoxybenzylamino)cyclobut-3-ene-1,2-dione], less than 1 µM.
For `Cn1cnc2cc(Nc3c(NCc4cccc(O)c4)c(=O)c3=O)ccc21` [Compound A50, 3-(1-methyl-1H-benzimidazol-5-ylamino)-4-(3-hydroxybenzylamino)cyclobut-3-ene-1,2-dione], the IC50 is more than 1 µM.
In the case of `CC(=O)Nc1ccc(CNc2c(Nc3ccc4[nH]cnc4c3)c(=O)c2=O)cc1` [Compound A157, 3-(1H-benzimidazol-5-ylamino)-4-(4-acetamidobenzylamino)cyclobut-3-ene-1,2-dione] it was more than 1 µM; in that of `CC(=O)c1cccc(CNc2c(Nc3ccc4[nH]cnc4c3)c(=O)c2=O)c1` [Compound A127, 3-(1H-benzimidazol-5-ylamino)-4-(3-acetyl-benzylamino)cyclobut-3-ene-1,2-dione], more than 1 µM; in that of `COCCOc1cccc(CNc2c(Nc3ccc4[nH]cnc4c3)c(=O)c2=O)c1` [Compound A106, 3-(1H-benzimidazol-5-ylamino)-4-[3-(2-methoxyethoxy)benzylamino]cyclobut-3-ene-1,2-dione], more than 1 µM.
In the case of `O=c1[nH]c2cc(CNc3c(Nc4ccc5[nH]cnc5c4)c(=O)c3=O)ccc2o1` [Compound A160, 3-(1H-benzimidazol-5-ylamino)-4-[(2-oxo-2,3-dihydrobenzoxazol-5-ylmethyl)amino]-cyclobut-3-ene-1,2-dione] it was more than 1 µM; in that of `CNS(=O)(=O)c1ccccc1CNc1c(Nc2ccc3[nH]cnc3c2)c(=O)c1=O` [Compound A154, 3-(1H-benzimidazol-5-ylamino)-4-[2-(N-methylaminosulfonyl)benzylamino]cyclobut-3-ene-1,2-dione], more than 1 µM; in that of `CN(Cc1cccc(O)c1)c1c(Nc2ccc3[nH]cnc3c2)c(=O)c1=O` [Compound A38, 3-(1H-benzimidazol-5-ylamino)-4-[(3-hydroxybenzyl)methylamino]cyclobut-3-ene-1,2-dione], less than 1 µM.
`Cc1cc2cc(Nc3c(NCc4cccc(O)c4)c(=O)c3=O)ccc2[nH]1` [Compound A39, 3-(2-methyl-1H-indol-5-ylamino)-4-(3-hydroxybenzylamino)cyclobut-3-ene-1,2-dione] came in with an IC50 of more than 1 µM.

These data come from patent US20080234266A1, “Squaric Acid Derivatives II” (priority 2005, published 2008).
